From US20070292895A1, “Assays and methods to detect beta-secretase and its activity in body fluids and tissue extracts” (priority 2006, published 2007)
Non-standard residues stand in square brackets, D forms with d. Residues, ends and D or L forms follow the SMILES beside them. *: point of attachment. Sta = CC(C)C[C@H](N)[C@@H](O)CC(=O)O; Isovaleryl = CC(C)CC(=O)*

Legend:
BACE-1 activity in CSF = assay: CSF BACE-1 activity with combinations of protease inhibitors (FIG. 9); type: biochemical; conditions: Merck-3 at 10 μM; Pepstatin A 10 μM present
Procedure: (§1) This example illustrates a method for solution based detection of BACE-1 activity in cerebral spinal fluid (CSF). BACE-1 enzymatic activity in CSF was measured using a two-step method. In the first step, cleavage of a biotinylated peptide substrate is accomplished using CSF as the source of BACE-1 enzyme. In the second step, the extent of enzymatic cleavage of substrate is detected using an avidin-biotin complex and enzyme linked immunosorbent assay (ELISA).
(§2) In the peptide substrate cleavage step, 25 μL of either purified recombinant baculovirus expressed BACE-1(aa1-460) at a range of concentration from 0.8 pM to 100 pM or rhesus or human CSF is added to the wells of a 96 well assay plate (COSTAR brand, Cat#3365). […]
(§3) In the second step, the product of BACE-1 enzymatic cleavage of the biotin-labeled peptide is measured by ELISA. […]
(§4) Afterwards, the plate is washed three times with PBST. […] The reaction is finally developed using 100 μL/well of CDP-STAR ready-to-use with HRP substrate (EMD Biosciences, Inc. San Diego, Calif.) or SAPPHIRE-II Enhancer substrate (Applied Biosystems, Foster City, Calif., Cat# T2214) for 30 minutes at room temperature. Absorbance or Luminescence counts, respectively, are measured in LJL-Analyst (Molecular Devices Corp., Sunnyvale, Calif.). […]

BACE-1 = molecular target: T1, BACE-1 (Mus musculus, UniProt P56818); assay: Brain BACE-1 activity assay, brain membrane extract, coumarin-labeled 10-mer substrate, HPLC detection; type: biochemical; conditions: E64 at 10 μM; membrane preparations from WT mice
T1 construct: a brain membrane extract containing endogenous BACE-1; from tissue; host or cells: mouse brain membrane preparation (wild-type mice)
T1 sequence (P56818 46-501): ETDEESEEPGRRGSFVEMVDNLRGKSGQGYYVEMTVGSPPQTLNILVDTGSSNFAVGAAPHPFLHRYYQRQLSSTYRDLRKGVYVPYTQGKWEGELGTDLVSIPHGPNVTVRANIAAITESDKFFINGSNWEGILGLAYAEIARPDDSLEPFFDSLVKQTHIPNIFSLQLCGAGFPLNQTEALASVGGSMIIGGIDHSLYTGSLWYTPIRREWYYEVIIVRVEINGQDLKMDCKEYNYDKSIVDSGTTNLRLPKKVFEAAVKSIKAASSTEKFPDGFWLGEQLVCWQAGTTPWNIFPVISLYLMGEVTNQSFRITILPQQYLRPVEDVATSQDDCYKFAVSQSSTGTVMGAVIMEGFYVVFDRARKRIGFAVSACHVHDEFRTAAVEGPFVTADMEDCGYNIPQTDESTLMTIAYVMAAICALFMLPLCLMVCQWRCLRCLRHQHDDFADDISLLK
Procedure: (§5) Brain BACE-1 enzymatic activity was measured using brain membrane extracts in a two-step method. In the first reaction step, a brain membrane extract containing endogenous BACE-1 is reacted with a coumarin labeled 10-mer peptide substrate in the presence of non-specific protease inhibitor cocktail and aspartyl protease inhibitor Pepstatin A. In a second detection step, an HPLC-based detection method is used to determine the extent of enzymatic cleavage of the 10-mer substrate.
(§6) Brain membranes are prepared as follows. Mice brain sections are homogenized in 10× w/v 50 mM MES buffer with protease inhibitor (Roche Applied Science, Indianapolis, Ind., Cat#11836145), pH 6.0 using a glass/Teflon homogenizer, using about 10 strokes. The homogenates are then spun at 2000 rpm (900×g) at 4° C. for 10 minutes. […] Protein concentration is determined using modified Bradford method (DC protein assay kit Cat#500-0114, Bio-Rad Laboratories, Hercules, Calif.). […]
(§7) In the second step, the BACE-1 cleavage product is detected. The resulting mixture is then chromatographed in a Waters Alliance HT HPLC system (Waters 2790, Waters Corporation, Milford, Mass.) to detect product and substrate fluorescence as follows. […]
(§8) The amount of cleaved product and substrate are detected with excitation at 340 nm and emission at 440 nm.

[1] = test system: non-specific aspartyl protease activity; assay: Non-specific aspartyl protease activity in brain membrane preparations, same HPLC cleavage assay; type: biochemical, mouse; conditions: membrane preparations from WT mice
Procedure: as §5, §6, §7, §8

[2] = test system: non-specific aspartyl protease activity; assay: Non-specific aspartyl protease activity in CSF (FIG. 9); type: biochemical; conditions: Pepstatin A 10 μM; this activity was about 59% of the protease activity in CSF
Procedure: as §1, §2, §3, §4

C[C@@H](NC(=O)c1cc(C(=O)N[C@@H](Cc2ccccc2)[C@H](O)CNC2CC2)cc(N(C)S(C)(=O)=O)c1)c1ccccc1 [Merck-3]
BACE-1 activity in CSF remaining after Pepstatin A (FIG. 9) (BACE-1 activity in CSF): completely abolished

CC(C)C[C@H](NC(=O)[C@H]1O[C@@H]1C(=O)O)C(=O)NCCCCN=C(N)N [E64]
effect on cleavage of substrate (FIG. 4) (BACE-1): no effect on cleavage of substrate

CC(C)CC(=O)N[C@H](C(=O)N[C@H](C(=O)N[C@@H](CC(C)C)[C@@H](O)CC(=O)N[C@@H](C)C(=O)N[C@@H](CC(C)C)[C@@H](O)CC(=O)O)C(C)C)C(C)C [Pepstatin A, pepstatin A] (Isovaleryl-VV[Sta]A[Sta]-OH)
non-specific aspartyl protease activity (FIG. 4) [1]: abolished | non-specific aspartyl protease activity in CSF (FIG. 9) [2]: abolished
